Experimental data: PubChem BioAssay AID623873 (Sanford-Burnham Center for Chemical Genomics, 2012)
Calls of active or inactive are those of the source.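 Rule for the calls: active = IC50 at or below 20 µM in the dose response; inactive = the rest.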

tested on: HL-1 cardiomyocytes, 2-deoxyglucose injury, ATP luminescence, 2 h; test: HL-1 cardiomyocyte survival under 2-deoxyglucose – cell-based, ATP luminescence, SAR follow-up (AID 623873)

| Compound | IC50 |
| --- | --- |
| Cc1ccc2cc(CN(C)S(=O)(=O)c3ccc(F)cc3)c(=O)[nH]c2c1 | > 79 µM (inactive) |
| Cc1ccc(S(=O)(=O)N2CCN(C(=O)c3cc(=O)[nH]c4ccccc34)CC2)cc1C | > 79 µM (inactive) |
| O=C1c2ccccc2N2C(=O)c3ccccc3[C@H]2N1c1ccccc1 | > 79 µM (inactive) |
| COc1cccc(CN(C)C(=O)c2cc(-c3ccc(OC)c(OC)c3)nc3ccccc23)c1 | 5.52 µM |
| COc1ccc(N2C(=O)c3ccccc3N3C(=O)c4c(ccc(OC)c4OC)C23)cc1 (configuration not stated) | 1.47 µM |
| COc1ccccc1N1C(=O)c2ccccc2N2C(=O)c3c(ccc(OC)c3OC)C12 (configuration not stated) | 29.4 µM (inactive) |
| CCN(CC(=O)Nc1ccc(OC)cc1)C(=O)c1cc(-c2cccs2)nn1-c1ccccc1 | 2.27 µM |
| COc1cc(-c2cc(C(=O)Nc3cccc(C(C)=O)c3)c3ccccc3n2)cc(OC)c1OC | 1.76 µM |
| COc1cccc(NC(=O)C(Sc2nc3ccccc3c(=O)n2CC(C)C)c2ccccc2)c1 (configuration not stated) | > 79 µM (inactive) |
| O=C(C(=O)N1CCCCC1)c1c(-c2ccccc2)[nH]c2ccccc12 | > 79 µM (inactive) |
| O=C(C(=O)N1CCCC1)c1c(-c2ccccc2)[nH]c2ccccc12 | > 79 µM (inactive) |
| CCCn1c(SC(C(=O)Nc2cccc(OC)c2)c2ccccc2)nc2ccccc2c1=O (configuration not stated) | > 79 µM (inactive) |
| COc1ccc(-n2cc(-c3ccccc3)c3c(NCc4ccccc4)ncnc32)cc1 | > 79 µM (inactive) |
| COc1ccc(-n2cc(-c3ccccc3)c3c(N4CCCC4)ncnc32)cc1 | > 79 µM (inactive) |
| COc1ccc2c(c1OC)C(=O)N1c3ccccc3C(=O)N(c3ccc(F)cc3)C21 (configuration not stated) | 3.4 µM |
| COc1ccc(-c2cc(C(=O)N(C)Cc3ccc(OC)c(OC)c3OC)c3ccccc3n2)cc1OC | 2.9 µM |
| COc1ccc(-c2cc(C(=O)NCc3ccccc3)c3ccccc3n2)cc1OC | > 79 µM (inactive) |
| Cc1ccc(-c2[nH]c3ccccc3c2C(=O)C(=O)N(C)C)cc1 | > 79 µM (inactive) |
| COc1ccc(S(=O)(=O)N(Cc2cccnc2)Cc2cc3ccccc3[nH]c2=O)cc1 | > 79 µM (inactive) |
| O=c1[nH]c2ccccc2cc1CN(Cc1ccco1)S(=O)(=O)c1ccc(F)cc1 | > 79 µM (inactive) |
| COCCn1c(SC(C(=O)Nc2cc(C)ccc2C)c2ccccc2)nc2ccccc2c1=O (configuration not stated) | > 79 µM (inactive) |

| Compound | IC50 |
| --- | --- |
| NC(=O)c1nsc(C(=O)N(Cc2ccccc2)C(C(=O)NCc2ccc(F)cc2)c2ccc(O)cc2)c1N (configuration not stated) | > 79 µM (inactive) |
| COc1cccc(CN(C)C(=O)c2cc(-c3ccccc3)nc3ccc(C)cc23)c1OC | > 79 µM (inactive) |
| Cc1ccc(NC(=O)CN(C)C(=O)c2cc(-c3cccs3)nn2-c2ccccc2)cc1 | > 79 µM (inactive) |
| Cc1ccc(S(=O)(=O)N(Cc2cccnc2)Cc2cc3ccccc3[nH]c2=O)cc1 | > 79 µM (inactive) |
| CCCN(CC(=O)Nc1ccccc1OC)C(=O)c1cc(-c2cccs2)nn1-c1ccccc1 | > 79 µM (inactive) |
| COc1ccc2c(c1OC)C(=O)N1c3ccccc3C(=O)N(c3cccc(Br)c3)C21 (configuration not stated) | 0.684 µM |
| COc1ccc(-c2cc(C(=O)N(C)C)c3ccccc3n2)cc1OC | 71.9 µM (inactive) |
| COc1ccc2cc(C(=O)N3CCN(S(=O)(=O)c4ccc(C)cc4C)CC3)c(C)nc2c1 | > 79 µM (inactive) |
| COc1ccc2c(c1OC)C(=O)N1c3ccccc3C(=O)N(c3ccccc3C)C21 (configuration not stated) | 11.7 µM (inactive) |
| Cc1ccc(C)c(S(=O)(=O)N2CCN(C(=O)c3cc4cc(C)ccc4nc3C)CC2)c1 | > 79 µM (inactive) |
| Cc1ccccc1N(C(=O)c1snc(C(N)=O)c1N)C(C(=O)NCc1ccc(F)cc1)c1ccc(O)cc1 (configuration not stated) | > 79 µM (inactive) |
| CCN(CC)C(=O)C(=O)c1c(-c2ccccc2)[nH]c2ccccc12 | > 79 µM (inactive) |
| COc1ccc2cc(C(=O)N3CCN(S(=O)(=O)c4cc(C)ccc4C)CC3)c(C)nc2c1 | > 79 µM (inactive) |
| CCN(CC)S(=O)(=O)c1cc(C(=O)N2CCN(Cc3cccc4cccnc34)CC2)ccc1C | > 79 µM (inactive) |
| COCCNC(=O)C(c1ccc(O)cc1)N(C(=O)c1snc(C(N)=O)c1N)c1ccccc1F (configuration not stated) | > 79 µM (inactive) |
| COc1ccc(-c2cc(C(=O)NCc3ccco3)c3ccccc3n2)cc1OC | 20.8 µM (inactive) |
| NC(=O)c1nsc(C(=O)N(c2cccc(F)c2)C(C(=O)NC2CCCC2)c2ccc(O)cc2)c1N (configuration not stated) | > 79 µM (inactive) |
| COc1ccc(-n2cc(-c3ccccc3)c3c(N4CCCCC4)ncnc32)cc1 | > 79 µM (inactive) |
| COc1ccc(NC(=O)CN(C)C(=O)c2cc(-c3cccs3)nn2-c2ccccc2)cc1 | > 79 µM (inactive) |
| COc1cccc(NC(=O)CN(C)C(=O)c2cc(-c3cccs3)nn2-c2ccccc2)c1 | > 79 µM (inactive) |
| COc1ccc2c(=O)c(C(=O)N3CCN(S(=O)(=O)c4c(C)cc(C)cc4C)CC3)c[nH]c2c1 | > 79 µM (inactive) |
